Data set [1] has as its system heart rate in humans. The data set can be described thus: Heart rate reduction in humans after administration (background finding). Type of data set: in vivo, human. Conditions: transient heart rate reduction.
The test system of data set [2] is healthy subjects. The data set can be described thus: Holter ECG, mean hourly heart rate and AUEC, two-way cross-over up-titration study. Type of data set: in vivo, human. Conditions: for mean hourly HR change from baseline at nadir (Holter): p <0.05 vs. baseline; for mean hourly HR change from baseline (Holter): Day 3, 2 h post-dose. The method, then: In a single-center, double-blind, placebo-controlled, randomized, two-way cross-over study, 32 healthy subjects (15 males) received placebo on Day 1 followed by multiple-dose administration of either ponesimod or placebo (ratio 3:1). Ponesimod was administered alternately using regimen A (incremental dose increase from 2 to 20 mg) or B (10 mg for 7 days followed by a single-dose administration of 20 mg). Cardiodynamic (Holter and 12-lead ECG), pharmacokinetic, pharmacodynamic (total lymphocyte count), and safety variables were assessed.
The enrolled subjects came to the study center for each treatment period on Day −2 and participated in a run-in (all study procedures performed without study drug administration) on Day −1. On Day 1, subjects were randomized to one of the two possible sequences of the two up-titration regimens A and B (ratio 1:1). On Day 1, all subjects received placebo; the first study drug administration (or its matching placebo) occurred on Day 2. Regimen A consisted of the novel up-titration regimen: ponesimod was administered once daily (o.d.) orally at a dose of 2 mg on Day 2 and Day 3, 3 mg on Day 4 and Day 5, 4 mg on Day 6 and Day 7, 5 mg on Day 8, 6 mg on Day 9, 7 mg on Day 10, 8 mg on Day 11, 9 mg on Day 12, 10 mg on Day 13 and Day 14, and 20 mg on Day 15. The reference regimen (regimen B) was based on previous studies (Olsson T. et al., Oral ponesimod in relapsing-remitting multiple sclerosis: a randomised phase II trial. J Neurol Neurosurg Psychiatry. 2014; 85 (11): 1198-1208; and Vaclavkova A. et al., Oral ponesimod in patients with chronic plaque psoriasis: a randomised, double-blind, placebo-controlled phase 2 trial. Lancet. 2014; 384 (9959): 2036-2045) and consisted of an o.d. oral administration of ponesimod at a dose of 10 mg for 7 days (i.e., from Day 2 to Day 8) and 20 mg on Day 9. From Day 10 to Day 15 subjects received o.d. the matching placebo. In the placebo group (1:1 sex ratio), subjects received placebo from Day 1 to Day 15. All treatments were administered at the same time in the morning (fasted condition) with approximately 240 mL of water.
Cardiodynamic endpoints were assessed using Holter and 12-lead ECG. The 24-h Holter recordings were performed on Day -1, Day 1, Day 2, Day 9, Day 13, and Day 15. The 12-h Holter recordings were performed on the other days. In addition, Holter data were used to estimate the area under the effect curve (AUEC) for HR. 12-lead ECGs were performed from Day −1 to Day 16 at pre-dose and 1, 2, 3, 4, 5, 6, 8, 10, and 12 h after study drug administration. An additional 12-lead ECG recording was performed at EOFP and EOS. Heart rate nadir, Emax (maximum decrease of mean hourly HR from baseline, which was defined as the mean of the time-matched assessments measured on Day −1 and Day 1 pre-dose), and occurrence of values of interest (HR <45 bpm, HR decrease from baseline >20 bpm, and PR interval increase from baseline >20 ms), and AV-blocks (i.e., PR interval >210 ms) were obtained with 12-lead ECG.
Cardiodynamic and pharmacodynamic data are expressed as mean±SD. Repeated measure one-way ANOVAs followed by Tukey's multiple-comparisons tests were used to perform inter-group (i.e., placebo vs. regimen A vs. regimen B) comparisons. Student's t-tests were employed to perform intra-group (baseline vs. treatment) comparisons. Differences were considered to be statistically significant at p <0.05. SAS® version 9.2 (SAS Institute, Cary, NC, USA) was used for the statistical analysis and descriptive statistics of clinical data.

For the molecule `CCC/N=C1\S/C(=C\c2ccc(OC[C@H](O)CO)c(Cl)c2)C(=O)N1c1ccccc1C` [ponesimod, (R)-5-[3-chloro-4-(2,3-dihydroxy-propoxy)-benz[Z]ylidene]-2-([Z]-propylimino)-3-o-tolyl-thiazolidin-4-one], in data set [1], the “time of maximal heart rate reducing effects after administration” value lay in the range of 1 to 3 h. The “time for mean hourly HR to return to pre-dose values after administration” value in data set [2] (Day 2 first dose, regimens A and B) lay in the range of 4 to 5 h. For the same molecule, in data set [2] (Day 4 to last day of treatment), the “decrease in mean hourly HR following administration” value was “no further significant decreases”. The “mean hourly HR change from baseline at nadir (Holter)” value is listed as −6±7.4 bpm in data set [2] (regimen A (2 mg), Day 2 first dose, 2 h post-dose, mean±SD) and −12±6.9 bpm in data set [2] (regimen B (10 mg), Day 2 first dose, 3 h post-dose, mean±SD). The “mean hourly HR change from baseline (Holter)” value in data set [2] (regimen A (2 mg), mean±SD) is on record as −8±5.3 bpm; in data set [2] (regimen B (10 mg), mean±SD), −9±5.7 bpm. For the same molecule, the “mean AUEC0-12 for HR” value was −70.7±38.7 bpm·h in data set [2] (regimen A, Day 2 first administration, mean±SD); −105.5±49.0 bpm·h in data set [2] (regimen A, Day 3, mean±SD); −146.6±59.8 bpm·h in data set [2] (regimen B (ponesimod 10 mg), Day 3, mean±SD); −128.6±63.3 bpmh in data set [2] (regimen B, Day 2 first administration, mean±SD). Further, the “time of nadir of mean hourly HR after administration” value in data set [2] (regimen A, Day 2 first dose) is 2 h; in data set [2] (regimen B, Day 2 first dose), 3 h.

The values above are taken from patent publication US12336980B2, “Dosing regimen for a selective S1P1 receptor agonist” (Vanda Pharmaceuticals Inc., priority 2014, dated 2025).
